Source: patent publication US5208248A, “Indazole-substituted five-membered heteroaromatic compounds” (Merck Sharpe & Dohme, Ltd., priority 1991, dated 1993)
Where a name gives a salt, the structure may show the parent alone.

Molecular target: T1, 5-HT1 -like receptor (Oryctolagus cuniculus, UniProt P49144)
T1 construct: contraction of the saphenous vein of New Zealand White rabbits; from tissue; host or cells: saphenous vein of New Zealand White rabbits
Experiment: Agonist-mediated contraction of rabbit saphenous vein
Parameters: species or system New Zealand White rabbits
Conditions: from plots of percentage 5-HT (1 μm) response against agonist concentration, read-out: pEC50 (-log10 EC50), agonist potency (converted)
Experimental: The activity of test compounds as agonists of the 5-HT1 -like receptor was measured in terms of their ability to mediate contraction of the saphenous vein of New Zealand White rabbits, using the procedure described in Arch. Pharm., 1990, 342, 111. Agonist potencies were calculated as -log10 EC50 (pEC50) values, from plots of percentage 5-HT (1 μm) response against the concentration of the agonist.

T1 sequence (P49144 whole entry): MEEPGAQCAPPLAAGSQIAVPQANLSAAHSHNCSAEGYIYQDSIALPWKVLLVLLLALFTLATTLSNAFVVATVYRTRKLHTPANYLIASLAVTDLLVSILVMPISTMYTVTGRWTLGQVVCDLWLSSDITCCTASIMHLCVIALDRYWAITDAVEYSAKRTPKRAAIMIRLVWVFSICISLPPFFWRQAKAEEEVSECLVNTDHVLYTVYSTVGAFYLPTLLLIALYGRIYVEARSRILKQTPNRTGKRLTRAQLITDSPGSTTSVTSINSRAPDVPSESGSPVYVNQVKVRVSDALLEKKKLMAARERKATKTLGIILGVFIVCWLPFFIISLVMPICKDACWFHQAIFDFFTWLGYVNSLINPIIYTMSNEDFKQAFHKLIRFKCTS

EC50: ≤ 10 µM
SMILES: Cc1noc(-c2ccc3[nH]nc(CCN)c3c2)n1 [Example 2, 2-[5-(3-Methyl-1,2,4-oxadiazol-5-yl)-1H-indazol-3-yl])ethylamine hydrogen oxalate]
